# Measured values reported in patent publication US20230144619A1, “SALT OF ARYLAMINOPURINE DERIVATIVE, PREPARATION METHOD THEREFOR AND USE THEREOF” (CSPC Zhongqi Pharmaceutical Technology (Shijiazhuang) Co., …, priority 2020, published 2023).
# Where a name gives a salt, the structure may show the parent alone.
# Legend:
# [1] = Solubility test (UV spectrophotometer, saturated solutions shaken 24 hours); format: physicochemical; conditions: 25° C.
# Experimental: Detection instrument: Ultraviolet spectrophotometer/Evolution 300
# The following solutions with pH=1.2, pH=4.5, and pH=6.8 and water were used as the solvent, and the solvent preparation process was as follows:
# (1) pH=1.2 hydrochloric acid solution: To 7.65 mL of hydrochloric acid was added 1000 mL of water, and the mixture was shaken uniformly to obtain the target solution.
# (2) pH=4.5 phosphate buffer solution: 6.8 g of potassium dihydrogen phosphate was taken and diluted with water to 1000 mL, and the mixture was shaken uniformly to obtain the target solution.
# (2) pH=6.8 phosphate buffer solution: 6.8 g of potassium dihydrogen phosphate and 0.896 g of sodium hydroxide were taken and diluted with water to 1000 mL, and the mixture was shaken uniformly to obtain the target solution.
# (4) Water: purified water
# Test tubes with stopper were taken, and 10 mL of dissolution media at various pH values were precisely added to the test tubes respectively, and excessive stock drugs were added until supersaturated solutions were formed. The adding amounts were recorded. The solutions were shaken uniformly, sealed with stoppers, and shaken for 24 hours in a shaker. 2 mL of solutions were taken out at different time points respectively, and centrifuged. The resulting supernatants were taken, filtered, and the subsequent filtrates were taken for later use.
# The above-mentioned saturated solutions in different solvents were taken, and solvents were added to dilute the solutions to certain volumes. The absorbances were measured at a wavelength of 287 nm.
# Preparation of a solution of the reference substance: an appropriate amount of the compound represented by Formula 1 was taken as the reference substance, and precisely weighed. A solvent was added to dissolve and dilute the reference compound to produce a solution containing about 10 μg of the compound represented by Formula 1 per 1 mL. The absorbance was measured at a wavelength of 287 nm to calculate the solubility.
# The salts obtained in Examples 1 and 3-17 and the compound represented by Formula 1 were subjected to the solubility test in media and the test results were shown in the following table: […]
# Long-term stability test = format: physicochemical; conditions: 25±2° C., relative humidity 60%±5%; for Content (%) / Moisture (%) / Related substances (%): packaged; for Acidity: pH value of 10 mg in 10 mL water
# Experimental: Detection instrument: Karl Fischer moisture titrator/915 KF Ti-Touch
# Test method: After the instrument was balanced, a proper amount (about 200 mg) of the test sample was taken, precisely weighed, and added to a titration cup, absolute methanol was used as the solvent, and a moisture titration solution was used for the direct measurement, and an average value was obtained by measuring each test sample twice.
# Detection Instrument: High performance liquid chromatograph/Waters e2695-2489
# Octadecyl silane bonded to silica gel was used as a filler (the applicable range of the pH value should be greater than 10.0), 20 mmol/L of disodium hydrogen phosphate solution (the pH value was adjusted to 10.0 with sodium hydroxide)-acetonitrile (65:35) was used as the mobile phase; the detection wavelength was 287 nm, and the column temperature was 30° C. The number of theoretical plates should be not less than 3000.
# Determination method: About 20 mg of the sample was taken and precisely weighed, put in a 100 mL volumetric flask. A diluent (50% methanol/water) was added to dissolve and dilute the sample to the scale. The content was shaken uniformly, and 10 μL was precisely metered and injected into a liquid chromatograph, and the chromatogram was recorded; another appropriate amount of the reference substance was taken, and the same method was used for determination. The result was obtained by calculating the peak area according to the external standard method.
# Detection instrument: Mettler Toledo S210-K pH meter
# Test method: Based on the operation according to the pH value measurement method, 10 mg of a sample was precisely weighed, then 10 mL of freshly boiled and cooled purified water was added to dissolve the sample, and the mixture was shaken uniformly, and then the pH value was measured.
# 12. Measurement of Related Substances
# Detection instrument: High performance liquid chromatograph/Waters e2695-2489
# Chromatographic Conditions:
# Octadecylsilane bonded to silica gel was used as a filler (Model: Waters Xbridge C18 chromatographic column, with a length of 250 mm, an inner diameter of 4.6 mm, and a filler particle size of 5 μm), the detection wavelength was 250 nm, the column temperature was 35° C., and the flow rate was 1.0 mL/minute, the mobile phase A was 0.02 mol/L of a disodium hydrogen phosphate solution (the pH value was adjusted to 10.0 with a sodium hydroxide solution), the mobile phase B was acetonitrile, and the diluent was methanol, and the temperature of the sample plate was 4° C.
# Test method: The system applicability test was performed according to the requirements, and the test sample solution, the control solution, and the sensitivity solution were prepared. Each 10 μL of the control solution and the test sample solution were precisely metered and injected into a liquid chromatograph, and the chromatogram was recorded. The result was obtained by calculating the peak area according to the self-dilution control method with the correction factor.
# An appropriate amount of the salt sample obtained from Example 1 was taken, a medicinal low-density polyethylene sack was used as the internal packaging, and a polyester/aluminum/polyethylene composite bag for medicine packaging was used as the external packaging. Samples were taken respectively at the end of the 3rd, 6th, 9th, 12th, and 18th months after being stored at a temperature of 25±2° C. under a relative humidity of 60%±5%. The appearances were compared, followed by measuring other investigation indexes. The results were compared with those measured in the 0th month.
smiles,measurement,setting,value
"CC(C)n1c(Nc2cccnc2)nc2cnc(Nc3ccc(N4CCN(C)CC4)cc3)nc21 [Example 1, arylaminopurine derivative.trihydrochloride.pentahydrate]","Solubility, Water medium pH = 1.2",[1]; pH=1.2 hydrochloric acid solution,33.89 mg/mL
same,"Solubility, Water medium pH = 4.5",[1]; pH=4.5 phosphate buffer solution,47.27 mg/mL
same,"Solubility, Water medium pH = 6.8",[1]; pH=6.8 phosphate buffer solution,50.62 mg/mL
same,"Solubility, Water medium",[1]; water (purified water),40.41 mg/mL
same,Content (%),Long-term stability test; 0 Month,100.9%
same,Moisture (%),Long-term stability test; 0 Month,13.9%
same,Related substances (%),Long-term stability test; 0 Month,0.33%
same,Content (%),Long-term stability test; 3 Month,100.4%
same,Moisture (%),Long-term stability test; 3 Month,13.9%
same,Related substances (%),Long-term stability test; 3 Month,0.34%
same,Content (%),Long-term stability test; 6 Month,100.8%
same,Moisture (%),Long-term stability test; 6 Month,14.3%
same,Related substances (%),Long-term stability test; 6 Month,0.34%
same,Content (%),Long-term stability test; 9 Month,101.7%
same,Moisture (%),Long-term stability test; 9 Month,14.3%
same,Related substances (%),Long-term stability test; 9 Month,0.31%
same,Content (%),Long-term stability test; 12 Month,99.6%
same,Moisture (%),Long-term stability test; 12 Month,13.9%
same,Related substances (%),Long-term stability test; 12 Month,0.34%
same,Content (%),Long-term stability test; 18 Month,100.2%
same,Moisture (%),Long-term stability test; 18 Month,14.2%
same,Related substances (%),Long-term stability test; 18 Month,0.26%
same,Acidity,Long-term stability test; 0 Month,3.1
same,Acidity,Long-term stability test; 3 Month,3.3
same,Acidity,Long-term stability test; 6 Month,3.3
same,Acidity,Long-term stability test; 9 Month,3.3
same,Acidity,Long-term stability test; 12 Month,3.3
same,Acidity,Long-term stability test; 18 Month,3.3
